Laboratory results published in article PMC11948903, “Exploring the synergy between fungal CE15 glucuronoyl esterases and xylanases for lignocellulose saccharification” (Biotechnology for Biofuels and Bioproducts, 2025).

Key:
AeGE15 = test system: T1, AeGE15; test: HPLC of released cinnamyl alcohol (UV […] nm), Michaelis-Menten fit; assay type: biochemical, Artolenzites elegans; details: 50 °C, pH 5; substrate 0.2–5.0 mM; read-out: Kinetic parameters / KM
T1 construct: gene aege; mature protein with N-terminal CBM1 and CE15 domain; native signal peptide (21 of 471 residues) removed; alpha-factor secretion signal, C-terminal His6 tag kept; Pichia pastoris X33

TlGE15 = test system: T2, TlGE15; test: as above; assay type: biochemical, Trametes ljubarskyi; details: 40 °C, pH 5; substrate 0.2–5.0 mM; read-out: Kinetic parameters / KM
T2 construct: gene tlge; mature protein with N-terminal CBM1 and CE15 domain; native signal peptide (21 of 474 residues) removed; alpha-factor secretion signal, C-terminal His6 tag kept; Pichia pastoris X33

Q: Which results are given for `O=C(OC/C=C/c1ccccc1)[C@H]1OC(O)[C@H](O)[C@@H](O)[C@@H]1O` (stereo partly drawn) [trans−3-phenyl-2-propen-1-yl D-glucopyranosyluronate]?
A: Km (AeGE15): 3.6 ± 0.6 mM; Km (TlGE15): 3.2 ± 0.5 mM
